Assay results published in patent US10392389B2, “Heterocyclic compounds for the inhibition of PASK” (BioEnergenix, LLC, priority 2012, dated 2019).

Columns and labels:
[1] = molecular target: T1, PASK (Invitrogen) (Homo sapiens, UniProt Q96RG2); test: PAS Kinase FRET Assay; type: biochemical; details: PAS kinase TR-FRET assay (665 nm/615 nm); read-out: IC50 Kinase Domain
T1 construct: IC50 Kinase Domain; purchased Invitrogen
Procedure, shortened: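 PASK phosphorylates a ULight-peptide with ATP in 50 mM HEPES, 10 mM MgCl2, 1 mM EGTA, 0.01% Tween-20, 2 mM DTT for 2 h at 25° C in the dark. Compounds are added as 4× serial dilutions (top 12×10^−5 M at 4×). After stopping, an Eu anti-phospho-substrate antibody is added for 1 h and TR-FRET is read at 665/615 nm.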

[2] = In vivo pharmacokinetics in the Sprague Dawley rat; details: formulation as in Table 5
Description: Pharmacokinetics of a PASK Inhibitor
The in vivo pharmacokinetics of Examples 12, 17, 43, and 51 were evaluated in the Sprague Dawley rat. Blood samples were collected at 0.083, 0.25, 0.5, 1, 2, 4, 6, 8, and 24 hours and the samples were analyzed for test compounds content using LC/MS/MS. The data was submitted to pharmacokinetic analysis using WinNonLin software and the observed and calculated pharmacokinetic parameters are shown in Table 5 for each compound.

[3] = molecular target: T2, PASK (UniProt #Q96RG2; human recombinant N-terminal GST tagged construct, residues 879-1323) (Homo sapiens, UniProt Q96RG2); test: PASK ATP Radiochemical Assay; type: biochemical; details: 33P-ATP, Myelin Basic Protein substrate, read-out: IC50 Kinase Domain
T2 construct: N-terminal GST tagged construct, residues 879-1323; GST (N); host or cells: insect cells
Procedure, shortened: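 Insect-cell GST-PASK (residues 879-1323, 5 nM final) phosphorylating 20 μM myelin basic protein with ^33P-ATP (0.01 μCi/μl final). Buffer 20 mM HEPES pH 7.5, 10 mM MgCl2, 1% DMSO. Reaction ran 120 min at room temperature; P81 filter binding and scintillation counting.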

[4] = molecular target: T3, CK2a2 (NP_001887; human full-length protein, GST tagged) (Homo sapiens, UniProt P19784); test: Biochemical Assay for CK2 Activity; details: 33P-ATP radiochemical assay, CK2 sub [RRRDDDSDDD]
T3 construct: human full-length protein, GST tagged; GST; host or cells: insect cells
Description: Biochemical Assay for CK2 Activity
(§1) Purified CK2a2 (NP_001887; human full-length protein, GST tagged) from insect cells (final concentration 1.2 nM) is added to freshly prepared Base Reaction Buffer containing 20 mM Hepes (pH 7.5), 10 mM MgCl2, 1 mM EGTA, 0.02% Brij35, 0.02 mg/ml BSA, 0.1 mM Na3VO4, 2 mM DTT, 1% DMSO and CK2 sub [RRRDDDSDDD] (20 μM final). Test compounds in DMSO are then added and the mixture, followed by delivery of ^33P-ATP (specific activity 0.01 μCi/μl final) to initiate the reaction. The kinase reaction is incubated for 120 min at room temperature. The entire reaction mixture is washed through onto a P81 Phosphocellulose paper and washed three times for 10 minutes in 75 mM phosphoric acid and once in methanol prior to drying and scintillation counting.

[5] = molecular target: T4, PIM1 (NP_002639; human full-length protein, 6×His tagged) (Homo sapiens, UniProt P11309); test: Biochemical Assay for PIM1 Activity; details: 33P-ATP radiochemical assay, S6K/Rsk2 peptide 2 substrate
T4 construct: human full-length protein, 6×His tagged; 6xHis; host or cells: insect cells
Description: Biochemical Assay for PIM1 Activity
as §1, with “PIM1 (NP_002639;” for “CK2a2 (NP_001887;”, “6×His” for “GST”, “1.0” for “1.2”, “substrate S6K/Rsk2 peptide 2 [KKRNRTLTK]” for “CK2 sub [RRRDDDSDDD]”, “10” for “0.01”

T1 sequence (Q96RG2 999-1251 limits assumed): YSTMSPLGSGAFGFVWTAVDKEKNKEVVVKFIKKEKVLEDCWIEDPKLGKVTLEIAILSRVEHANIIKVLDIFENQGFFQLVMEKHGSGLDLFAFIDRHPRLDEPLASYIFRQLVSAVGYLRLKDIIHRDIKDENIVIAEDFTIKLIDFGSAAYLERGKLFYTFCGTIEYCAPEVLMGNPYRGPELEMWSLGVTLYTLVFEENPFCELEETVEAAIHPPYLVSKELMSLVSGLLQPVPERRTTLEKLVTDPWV
T2 sequence (Q96RG2 879-1323, stated change not applied): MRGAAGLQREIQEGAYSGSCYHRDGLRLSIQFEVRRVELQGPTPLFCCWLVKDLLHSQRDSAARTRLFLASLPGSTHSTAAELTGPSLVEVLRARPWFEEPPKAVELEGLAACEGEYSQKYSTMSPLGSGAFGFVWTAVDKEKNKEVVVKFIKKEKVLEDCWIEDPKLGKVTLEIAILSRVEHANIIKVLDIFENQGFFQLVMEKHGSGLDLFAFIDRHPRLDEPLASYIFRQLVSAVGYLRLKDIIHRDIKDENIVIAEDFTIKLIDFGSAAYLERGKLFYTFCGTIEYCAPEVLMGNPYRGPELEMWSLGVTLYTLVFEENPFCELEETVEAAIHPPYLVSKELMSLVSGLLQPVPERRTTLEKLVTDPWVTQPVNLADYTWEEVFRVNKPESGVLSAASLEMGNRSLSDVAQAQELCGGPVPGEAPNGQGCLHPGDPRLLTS
T3 sequence (P19784 whole entry): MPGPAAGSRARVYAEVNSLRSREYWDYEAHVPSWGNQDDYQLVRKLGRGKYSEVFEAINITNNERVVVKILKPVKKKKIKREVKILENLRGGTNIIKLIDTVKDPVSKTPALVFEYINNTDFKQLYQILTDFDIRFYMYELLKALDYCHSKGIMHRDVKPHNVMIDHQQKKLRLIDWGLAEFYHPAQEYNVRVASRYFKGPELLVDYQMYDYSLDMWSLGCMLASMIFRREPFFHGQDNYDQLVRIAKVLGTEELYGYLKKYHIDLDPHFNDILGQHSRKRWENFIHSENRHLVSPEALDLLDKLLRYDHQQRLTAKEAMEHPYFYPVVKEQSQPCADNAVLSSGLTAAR
T4 sequence (P11309 whole entry): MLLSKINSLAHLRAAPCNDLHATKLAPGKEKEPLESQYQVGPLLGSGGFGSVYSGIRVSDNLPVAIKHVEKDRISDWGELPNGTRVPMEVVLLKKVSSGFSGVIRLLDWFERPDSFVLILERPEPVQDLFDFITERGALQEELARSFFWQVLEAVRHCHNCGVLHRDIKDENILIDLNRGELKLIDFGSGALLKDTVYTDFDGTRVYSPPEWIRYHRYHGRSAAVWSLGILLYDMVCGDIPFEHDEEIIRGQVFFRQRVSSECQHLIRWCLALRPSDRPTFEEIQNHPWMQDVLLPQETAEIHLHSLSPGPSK

Row | SMILES | IC50 [1] | Cl (clearance) ([2]; IV, 3 mg/kg) | Vss (volume of distribution) ([2]; IV, 3 mg/kg) | t1/2 (half-life) ([2]; IV, 3 mg/kg) | F (oral bioavailability) ([2]; PO, 10 mg/kg) | Tmax (Time to maximum blood concentration after an oral dose) ([2]; PO, 10 mg/kg) | t1/2 (half-life) ([2]; PO, 10 mg/kg) | IC50 [3] | IC50 [4] | IC50 [5]
1 | CCn1ncc2cc(-c3cc(=O)n4ncc(-c5nc(C)no5)c4[nH]3)ccc21 [Example 43, 5-(1-ethyl-1H-indazol-5-yl)-3-(3-methyl-1,2,4-oxadiazol-5-yl)-4H,7H-pyrazolo[1,5-a]pyrimidin-7-one] | ≤ 10 µM | 23.9 mL/min/kg | 0.719 L/kg | 1.62 h | 44.7% | 30 min | 3.35 h |  |  | 
2 | COc1cc(-c2cc(=O)n3ncc(-c4ncc(C)o4)c3[nH]2)ccc1Cl [Example 17, 5-(4-chloro-3-methoxyphenyl)-3-(5-methyl-1,3-oxazol-2-yl)-4H,7H-pyrazolo[1,5-a]pyrimidin-7-one] | ≤ 10 µM | 6.19 mL/min/kg | 0.61 L/kg | 8.3 h | 42% | 240 min | 2.12 h | ≤ 10 µM | ≤ 10 µM | ≤ 10 µM
3 | COc1cc(-c2cc(=O)n3ncc(-c4ccnn4C)c3[nH]2)ccc1Cl [Example 51, 5-(4-chloro-3-methoxyphenyl)-3-(1-methyl-1H-pyrazol-5-yl)pyrazolo[1,5-a]pyrimidin-7(4H)-one] | ≤ 10 µM | 62 mL/min/kg | 0.71 L/kg | 0.38 h | 1.17% | 15 min | 2.62 h |  |  | 
4 | CCn1ncc2cc(-c3cc(=O)n4ncc(-c5ncc(C)o5)c4[nH]3)ccc21 [Example 12, 5-(1-ethyl-1H-indazol-5-yl)-3-(5-methyl-1,3-oxazol-2-yl)-4H,7H-pyrazolo[1,5-a]pyrimidin-7-one] | ≤ 10 µM | 8.76 mL/min/kg | 0.35 L/kg | 3.75 h | 46.5% | 30 min | 2.38 h |  |  | 
